For nine compounds, % of control, % of inhibition and dTM results are on record in ChEMBL document CHEMBL5465560, “Selectivity Literature for EUbOPEN Chemogenomic Library” (2024).

The target of experiment [1] is T1, Tyrosine-protein kinase ZAP-70 (Homo sapiens) (UniProt P43403).
T1 sequence (whole entry): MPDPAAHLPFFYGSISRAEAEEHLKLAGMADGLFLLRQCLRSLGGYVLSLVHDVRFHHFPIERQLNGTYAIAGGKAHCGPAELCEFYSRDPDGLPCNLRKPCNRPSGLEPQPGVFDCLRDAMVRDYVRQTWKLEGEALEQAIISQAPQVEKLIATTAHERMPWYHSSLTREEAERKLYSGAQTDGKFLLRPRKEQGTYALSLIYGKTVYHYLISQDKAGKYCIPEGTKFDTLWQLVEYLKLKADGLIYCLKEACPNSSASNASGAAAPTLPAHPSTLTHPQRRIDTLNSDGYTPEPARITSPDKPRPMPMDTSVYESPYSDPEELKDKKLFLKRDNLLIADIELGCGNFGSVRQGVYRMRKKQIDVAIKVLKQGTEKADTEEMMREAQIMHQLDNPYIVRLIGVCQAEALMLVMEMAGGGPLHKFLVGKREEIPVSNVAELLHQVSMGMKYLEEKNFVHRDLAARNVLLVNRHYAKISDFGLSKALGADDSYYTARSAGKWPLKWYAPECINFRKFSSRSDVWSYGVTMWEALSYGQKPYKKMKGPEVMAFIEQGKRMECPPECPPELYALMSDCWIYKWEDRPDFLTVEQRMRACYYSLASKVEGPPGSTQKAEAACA
The experiment can be described thus: Selectivity interaction (KinomeScan (DiscoverX)) EUB0000607a ZAP70. The note with it: at 10 µM.

In experiment [2] the target is RAC-beta serine/threonine-protein kinase (Homo sapiens) (UniProt P31751). Nature of the experiment: Selectivity interaction (Kinase screening (Nanosyn)) EUB0000604a AKT2.
RAC-beta serine/threonine-protein kinase (Homo sapiens), sequence (P31751 whole entry): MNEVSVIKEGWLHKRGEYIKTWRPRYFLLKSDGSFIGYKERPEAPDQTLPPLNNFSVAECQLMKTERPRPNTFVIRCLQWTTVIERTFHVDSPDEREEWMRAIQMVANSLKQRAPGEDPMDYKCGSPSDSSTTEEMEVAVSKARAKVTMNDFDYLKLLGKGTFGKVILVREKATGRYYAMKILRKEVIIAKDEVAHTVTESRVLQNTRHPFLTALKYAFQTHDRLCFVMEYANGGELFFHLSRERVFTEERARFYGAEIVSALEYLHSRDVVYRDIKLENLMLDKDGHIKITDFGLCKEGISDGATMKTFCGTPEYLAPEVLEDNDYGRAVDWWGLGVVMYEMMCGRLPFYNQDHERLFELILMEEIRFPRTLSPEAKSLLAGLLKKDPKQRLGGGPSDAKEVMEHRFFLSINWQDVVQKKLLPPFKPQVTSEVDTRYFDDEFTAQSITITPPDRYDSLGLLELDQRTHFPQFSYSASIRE
Experiment [3] addresses Serine/threonine-protein kinase Chk2 (Homo sapiens) (UniProt O96017). The experiment can be described thus: Selectivity interaction (ActivX KiNativ screen (kinase selectivity in THP-1 cell lysates)) EUB0000639a CHEK2. The class given is subcellular. The note with it: lysate, at 1 µM.
Experiment [4] deals with Ephrin type-A receptor 2 (Homo sapiens) (UniProt P29317). The experiment can be described thus: Selectivity interaction (Kinase panel (DSF assay)) EUB0001559a EPHA2. (Differential scanning fluorimetry follows unfolding on heating by fluorescence.)
Ephrin type-A receptor 2 (Homo sapiens), sequence (P29317 whole entry): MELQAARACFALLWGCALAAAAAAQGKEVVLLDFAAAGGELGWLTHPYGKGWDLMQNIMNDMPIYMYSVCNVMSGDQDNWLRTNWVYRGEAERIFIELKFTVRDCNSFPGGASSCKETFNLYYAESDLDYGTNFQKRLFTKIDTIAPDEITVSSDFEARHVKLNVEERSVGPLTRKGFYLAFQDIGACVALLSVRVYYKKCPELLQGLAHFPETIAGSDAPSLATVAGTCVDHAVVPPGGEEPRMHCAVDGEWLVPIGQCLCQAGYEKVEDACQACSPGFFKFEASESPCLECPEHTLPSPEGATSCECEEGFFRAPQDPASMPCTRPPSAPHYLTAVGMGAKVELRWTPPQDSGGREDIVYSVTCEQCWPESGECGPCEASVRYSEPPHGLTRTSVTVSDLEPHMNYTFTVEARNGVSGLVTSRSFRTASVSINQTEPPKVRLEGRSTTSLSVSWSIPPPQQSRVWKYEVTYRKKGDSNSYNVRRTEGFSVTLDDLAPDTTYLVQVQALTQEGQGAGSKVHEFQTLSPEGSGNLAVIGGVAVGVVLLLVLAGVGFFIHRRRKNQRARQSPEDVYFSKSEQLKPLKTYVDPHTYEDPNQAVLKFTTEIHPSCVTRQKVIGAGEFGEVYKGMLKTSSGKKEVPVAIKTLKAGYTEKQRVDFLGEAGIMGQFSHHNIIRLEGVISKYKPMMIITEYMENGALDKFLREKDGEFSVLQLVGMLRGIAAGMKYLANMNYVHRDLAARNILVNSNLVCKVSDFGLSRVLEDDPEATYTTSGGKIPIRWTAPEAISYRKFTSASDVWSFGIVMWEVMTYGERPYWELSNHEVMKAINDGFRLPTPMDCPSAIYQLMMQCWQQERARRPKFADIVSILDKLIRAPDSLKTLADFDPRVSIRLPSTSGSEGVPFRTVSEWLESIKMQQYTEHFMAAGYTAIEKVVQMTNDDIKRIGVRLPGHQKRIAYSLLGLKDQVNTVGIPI
For experiment [5], the target named is Serine/threonine-protein kinase pim-3 (Homo sapiens) (UniProt Q86V86). Nature of the experiment: Selectivity interaction (KinomeScan (DiscoverX)) EUB0000045b PIM3.
Experiment [6] addresses T2, Serine/threonine-protein kinase RIO1 (Homo sapiens) (UniProt Q9BRS2).
T2 sequence (whole entry): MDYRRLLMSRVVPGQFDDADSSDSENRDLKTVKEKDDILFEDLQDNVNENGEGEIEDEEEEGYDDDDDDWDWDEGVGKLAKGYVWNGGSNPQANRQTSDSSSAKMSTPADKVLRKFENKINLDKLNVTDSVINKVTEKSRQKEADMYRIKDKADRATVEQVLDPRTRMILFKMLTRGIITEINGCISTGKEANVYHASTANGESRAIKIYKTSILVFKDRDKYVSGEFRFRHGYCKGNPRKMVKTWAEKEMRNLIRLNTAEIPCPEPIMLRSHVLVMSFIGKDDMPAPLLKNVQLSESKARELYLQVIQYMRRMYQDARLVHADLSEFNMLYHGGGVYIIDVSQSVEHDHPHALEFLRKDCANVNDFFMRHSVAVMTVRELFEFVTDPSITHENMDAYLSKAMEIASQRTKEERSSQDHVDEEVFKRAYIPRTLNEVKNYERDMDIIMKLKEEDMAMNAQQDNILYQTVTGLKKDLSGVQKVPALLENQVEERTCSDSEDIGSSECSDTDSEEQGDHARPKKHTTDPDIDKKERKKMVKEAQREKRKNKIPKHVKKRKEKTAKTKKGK
Nature of the experiment: Selectivity interaction (KinomeScan (DiscoverX)) EUB0000045b RIOK1.

For experiment [7], the target named is TGF-beta receptor type-2 (Homo sapiens) (UniProt P37173). The experiment can be described thus: Selectivity interaction (KinomeScan (DiscoverX)) EUB0000045b TGFBR2.
TGF-beta receptor type-2 (Homo sapiens), sequence (P37173 whole entry): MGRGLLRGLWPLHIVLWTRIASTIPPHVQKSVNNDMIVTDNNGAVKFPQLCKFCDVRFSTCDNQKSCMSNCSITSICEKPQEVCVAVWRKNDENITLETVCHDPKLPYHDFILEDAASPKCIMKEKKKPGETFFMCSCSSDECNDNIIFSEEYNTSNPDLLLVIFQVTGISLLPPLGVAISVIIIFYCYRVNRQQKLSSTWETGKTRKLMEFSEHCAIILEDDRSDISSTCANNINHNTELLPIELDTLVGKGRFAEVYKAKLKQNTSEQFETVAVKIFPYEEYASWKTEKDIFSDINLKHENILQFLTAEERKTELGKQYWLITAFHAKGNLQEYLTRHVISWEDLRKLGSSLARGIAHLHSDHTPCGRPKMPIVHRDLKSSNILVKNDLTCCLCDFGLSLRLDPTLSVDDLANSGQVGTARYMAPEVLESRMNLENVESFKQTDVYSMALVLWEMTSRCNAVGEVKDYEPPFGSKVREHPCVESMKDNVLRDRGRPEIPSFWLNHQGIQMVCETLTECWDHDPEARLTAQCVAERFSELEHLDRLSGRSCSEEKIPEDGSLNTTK
For experiment [8], the system named is Tyrosine-protein kinase ABL1 (Homo sapiens), P00519 [E255K]. Nature of the experiment: (§1) Selectivity interaction (ProQinase) EUB0000171b ABL1.
Experiment [9] has as its system Tyrosine-protein kinase ABL1 (Homo sapiens), P00519 [F317I]. The description is as §1.
In experiment [10] the test system is Tyrosine-protein kinase ABL1 (Homo sapiens), P00519 [G250E]. Described as §1.
Experiment [11] relates to Tyrosine-protein kinase ABL1 (Homo sapiens), P00519 [H396P]. Described as §1.
The subject of experiment [12] is Tyrosine-protein kinase ABL1 (Homo sapiens), P00519 [M351T]. The description is as §1.
Experiment [13] deals with Tyrosine-protein kinase ABL1 (Homo sapiens), P00519 [Q252H]. The description is as §1.
For experiment [14], the system named is Tyrosine-protein kinase ABL1 (Homo sapiens), P00519 [T315I]. The description is as §1.
Experiment [15] deals with Tyrosine-protein kinase ABL1 (Homo sapiens), P00519 [Y253F]. The description is as §1.
Experiment [16] has as its target Tyrosine-protein kinase ABL1 (Homo sapiens, UniProt P00519). The description is as §1.
The target in experiment [17] is Cyclin-dependent kinase 7 (Homo sapiens, UniProt P50613). Nature of the experiment: Selectivity interaction (Ambit KINOMEscan and KiNATiv profiling in Jurkat cells) EUB0000090b CDK7. Conditions: at 1 µM. The class given is cell-based.
Cyclin-dependent kinase 7, sequence (P50613 whole entry): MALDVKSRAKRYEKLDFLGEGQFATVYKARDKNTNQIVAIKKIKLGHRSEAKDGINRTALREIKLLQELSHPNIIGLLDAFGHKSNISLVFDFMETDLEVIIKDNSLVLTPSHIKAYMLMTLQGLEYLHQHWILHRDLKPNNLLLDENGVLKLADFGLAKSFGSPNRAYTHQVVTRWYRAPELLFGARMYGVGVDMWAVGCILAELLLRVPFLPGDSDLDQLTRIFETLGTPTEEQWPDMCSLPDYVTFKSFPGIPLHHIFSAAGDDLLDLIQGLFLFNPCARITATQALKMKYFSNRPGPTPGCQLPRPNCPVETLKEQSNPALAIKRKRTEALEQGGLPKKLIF
The target of experiment [18] is T3, Cyclin-dependent kinase-like 2 (Homo sapiens) (UniProt Q92772).
T3 sequence (whole entry): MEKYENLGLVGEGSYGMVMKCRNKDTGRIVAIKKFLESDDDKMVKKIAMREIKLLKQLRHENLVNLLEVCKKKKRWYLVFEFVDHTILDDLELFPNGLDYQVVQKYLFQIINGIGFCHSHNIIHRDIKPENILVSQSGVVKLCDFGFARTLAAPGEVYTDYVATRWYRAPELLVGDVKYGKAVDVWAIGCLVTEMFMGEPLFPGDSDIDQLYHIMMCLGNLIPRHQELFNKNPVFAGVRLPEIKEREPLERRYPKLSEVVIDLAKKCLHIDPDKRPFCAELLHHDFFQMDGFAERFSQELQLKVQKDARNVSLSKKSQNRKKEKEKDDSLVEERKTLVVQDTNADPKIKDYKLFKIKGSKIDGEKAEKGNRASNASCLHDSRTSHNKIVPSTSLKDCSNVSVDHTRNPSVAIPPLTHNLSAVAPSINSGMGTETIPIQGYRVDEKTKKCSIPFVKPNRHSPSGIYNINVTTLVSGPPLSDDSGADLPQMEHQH
The experiment can be described thus: Selectivity interaction (KinomeScan (DiscoverX)) EUB0000655a CDKL2. The note with it: at 10 µM.

The target of experiment [19] is AP2-associated protein kinase 1 (Homo sapiens, UniProt Q2M2I8). Nature of the experiment: Selectivity interaction (KinomeScan (DiscoverX)) EUB0001079a AAK1. The note with it: at 1 µM.
AP2-associated protein kinase 1, sequence (Q2M2I8 whole entry, looked up): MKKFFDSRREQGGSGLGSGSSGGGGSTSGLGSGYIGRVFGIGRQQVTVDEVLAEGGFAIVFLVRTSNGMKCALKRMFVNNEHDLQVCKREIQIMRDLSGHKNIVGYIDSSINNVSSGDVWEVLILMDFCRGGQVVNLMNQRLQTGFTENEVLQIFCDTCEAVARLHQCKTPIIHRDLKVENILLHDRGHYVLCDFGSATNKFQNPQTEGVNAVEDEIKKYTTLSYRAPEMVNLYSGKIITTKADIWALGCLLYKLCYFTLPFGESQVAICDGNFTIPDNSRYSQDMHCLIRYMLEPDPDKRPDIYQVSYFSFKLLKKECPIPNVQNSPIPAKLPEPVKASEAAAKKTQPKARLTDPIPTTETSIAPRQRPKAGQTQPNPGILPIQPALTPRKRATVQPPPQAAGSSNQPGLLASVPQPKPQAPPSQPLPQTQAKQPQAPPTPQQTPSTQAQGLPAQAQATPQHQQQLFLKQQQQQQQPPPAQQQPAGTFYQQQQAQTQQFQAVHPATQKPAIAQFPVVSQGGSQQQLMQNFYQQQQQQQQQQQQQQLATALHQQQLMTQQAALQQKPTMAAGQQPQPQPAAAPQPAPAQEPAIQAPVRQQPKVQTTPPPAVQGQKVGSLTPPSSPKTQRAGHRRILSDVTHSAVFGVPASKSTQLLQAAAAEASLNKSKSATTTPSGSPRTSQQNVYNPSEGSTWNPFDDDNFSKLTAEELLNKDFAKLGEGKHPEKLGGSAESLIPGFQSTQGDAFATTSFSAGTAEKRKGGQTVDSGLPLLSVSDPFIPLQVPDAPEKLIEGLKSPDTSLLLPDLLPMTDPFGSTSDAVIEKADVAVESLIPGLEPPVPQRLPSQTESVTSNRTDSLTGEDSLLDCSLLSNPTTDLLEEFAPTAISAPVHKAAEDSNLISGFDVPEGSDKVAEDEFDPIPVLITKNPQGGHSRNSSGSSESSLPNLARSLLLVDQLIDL

Serine/threonine-protein kinase Chk2 (Homo sapiens), sequence (O96017 whole entry): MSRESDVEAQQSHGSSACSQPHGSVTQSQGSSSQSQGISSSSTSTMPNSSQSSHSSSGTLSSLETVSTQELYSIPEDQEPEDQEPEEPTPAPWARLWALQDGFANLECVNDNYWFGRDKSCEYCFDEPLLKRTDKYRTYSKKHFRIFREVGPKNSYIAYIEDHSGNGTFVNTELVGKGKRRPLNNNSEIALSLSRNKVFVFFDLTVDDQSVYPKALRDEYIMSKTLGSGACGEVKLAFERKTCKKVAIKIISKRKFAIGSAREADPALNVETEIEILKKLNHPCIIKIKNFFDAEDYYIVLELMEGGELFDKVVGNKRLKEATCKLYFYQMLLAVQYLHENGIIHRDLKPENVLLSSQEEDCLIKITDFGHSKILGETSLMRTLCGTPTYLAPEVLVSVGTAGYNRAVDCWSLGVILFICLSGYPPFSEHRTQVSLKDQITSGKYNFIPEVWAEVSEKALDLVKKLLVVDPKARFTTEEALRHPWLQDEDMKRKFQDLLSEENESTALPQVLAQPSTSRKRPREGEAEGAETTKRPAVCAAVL

As for `CNC(=O)Nc1ccc(-c2nc(N3CC4CCC(C3)O4)c3cnn(C4CCC5(CC4)OCCO5)c3n2)cc1`, the % of control in [1] was 83%.
`Cc1cnc(Nc2ccc(F)cc2Cl)nc1-c1c[nH]c(C(=O)N[C@H](CO)c2cccc(Cl)c2)c1`: the % of inhibition in experiment [2] amounted to 0%.
Consider `CC[C@@H]1[C@H](F)C(=O)N[C@@H]1COc1nccc2cc(C(N)=O)c(OC)cc12` [ZIMLOVISERTIB], for which the % of inhibition in experiment [3] came out at 22.6%.
For the compound `CN(C(=O)c1cnn2cccnc12)c1cc2c(cc1N1CCOCC1)C(=O)N(C[C@@H](F)C(C)(C)O)C2`, in experiment [4], the dTM was -0.4 K.
Regarding `C=CC(=O)Nc1cc(-n2c(=O)ccc3cnc4ccc(-c5ccc(NS(C)(=O)=O)cc5)cc4c32)ccc1C`, the % of control amounted to 83% in [5] (at 1 µM); 82% in experiment [5] (at 10 µM); 20% in experiment [6] (at 1 µM); 52% in experiment [6] (at 10 µM); 100% in [7] (at 1 µM); 100% in experiment [7] (at 10 µM).
With `C=CC(=O)Nc1cccc(C(=O)Nc2ccc(Nc3cc(-c4[nH]c(SC)nc4C)ccn3)cc2)c1`, the % of control came to 94% in experiment [8] (at 1 µM); 88% in experiment [8] (at 5 µM); 102% in experiment [9] (at 1 µM); 82% in experiment [9] (at 5 µM); 88% in experiment [10] (at 1 µM); 89% in [10] (at 5 µM). Further, the % of control in experiment [11] (at 1 µM) was 93%; in experiment [11] (at 5 µM), 71%; in experiment [12] (at 1 µM), 87%; in experiment [12] (at 5 µM) it was 61%; in experiment [13] (at 1 µM), 96%; in [13] (at 5 µM) it was 65%. Besides, the % of control in experiment [14] (at 1 µM) amounted to 91%; in experiment [14] (at 5 µM) it was 82%; in [15] (at 1 µM) it was 85%; in experiment [15] (at 5 µM), 64%; in experiment [16] (at 1 µM), 96%; in experiment [16] (at 5 µM) it was 71%.
`CN(C)C/C=C/C(=O)Nc1ccc(C(=O)N2CCCC(Nc3ncc(Cl)c(-c4c[nH]c5ccccc45)n3)C2)cc1` (stereo unspecified) had a % of control in experiment [17] of 28%.
`CN(C)CCOc1ccc(-c2nc(-c3ccncc3)c(-c3ccc4c(c3)CC/C4=N\O)[nH]2)cc1` displayed a % of control in [18] of 100%.
`Nc1cnc(N2CCc3cc(S(=O)(=O)Nc4c(F)cc(Cl)cc4F)cc(N4CCCC4=O)c32)nc1` [TP-020n]: in experiment [19], the % of control turned out to be 100%.
